Test results reported in ChEMBL document CHEMBL5131428, “Discovery of potent antiproliferative agents from selected oxygen heterocycles as EGFR tyrosine kinase inhibitors from the U.S. National Cancer Institute database by in silico screening and bioactivity evaluation” (Bioorg Med Chem Lett, 2022).

These molecules were tested against T1, Epidermal growth factor receptor (Homo sapiens, UniProt P00533) (assay: Inhibition of EGFR tyrosine kinase (unknown origin) preincubated for 5 mins followed by substrate addition and further incubated for 10 mins in presence of ATP by fluorescence based microplate reader analysis). Settings: not given.
T1 sequence (P00533 whole entry): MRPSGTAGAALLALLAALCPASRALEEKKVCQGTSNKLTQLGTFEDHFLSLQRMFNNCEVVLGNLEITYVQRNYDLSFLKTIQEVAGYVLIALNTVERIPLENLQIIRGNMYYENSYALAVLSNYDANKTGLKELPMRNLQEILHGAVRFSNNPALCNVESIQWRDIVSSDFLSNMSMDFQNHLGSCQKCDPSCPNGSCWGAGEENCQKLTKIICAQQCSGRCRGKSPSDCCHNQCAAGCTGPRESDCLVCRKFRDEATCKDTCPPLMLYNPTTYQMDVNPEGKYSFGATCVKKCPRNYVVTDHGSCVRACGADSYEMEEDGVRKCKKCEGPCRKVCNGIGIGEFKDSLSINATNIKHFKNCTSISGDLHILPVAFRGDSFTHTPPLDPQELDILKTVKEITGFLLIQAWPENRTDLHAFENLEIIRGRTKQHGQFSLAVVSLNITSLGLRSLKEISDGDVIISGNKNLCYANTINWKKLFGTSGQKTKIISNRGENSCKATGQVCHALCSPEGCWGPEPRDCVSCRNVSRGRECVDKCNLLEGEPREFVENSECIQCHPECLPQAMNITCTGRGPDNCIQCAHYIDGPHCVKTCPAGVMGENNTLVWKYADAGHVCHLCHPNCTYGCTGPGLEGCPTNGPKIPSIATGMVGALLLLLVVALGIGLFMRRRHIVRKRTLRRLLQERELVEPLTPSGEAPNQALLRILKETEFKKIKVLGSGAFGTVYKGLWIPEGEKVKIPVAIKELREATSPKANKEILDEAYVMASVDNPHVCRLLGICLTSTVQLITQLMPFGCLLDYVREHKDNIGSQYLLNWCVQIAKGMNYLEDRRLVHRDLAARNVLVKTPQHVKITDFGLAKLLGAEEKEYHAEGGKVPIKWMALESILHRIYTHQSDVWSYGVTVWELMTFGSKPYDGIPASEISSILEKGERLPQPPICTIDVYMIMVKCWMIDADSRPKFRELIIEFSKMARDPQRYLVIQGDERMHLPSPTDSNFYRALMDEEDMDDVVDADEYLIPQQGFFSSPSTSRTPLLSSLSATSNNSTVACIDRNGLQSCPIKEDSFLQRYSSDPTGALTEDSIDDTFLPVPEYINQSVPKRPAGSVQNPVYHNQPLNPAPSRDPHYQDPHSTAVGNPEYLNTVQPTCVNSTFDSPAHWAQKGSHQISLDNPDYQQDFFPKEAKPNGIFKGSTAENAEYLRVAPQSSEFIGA

Row | IC50 | Compound
1 | 0.9 µM | O=c1c2cccc(O)c2oc2cccc(O)c12

These molecules were tested on A-431 (assay: Antiproliferative activity against human A-431 cells overexpressing EGFR assessed as cell survival at 10 uM relative to control). Settings: read-out: Survival.
Format: functional

Row | Compound | viability at 10 µM
2 | Cc1c2cc(O)c(=O)cc-2oc2cc(O)c(O)cc12 | 57%
3 | COC1=CC(=C(c2ccc(O)c(OC)c2)c2ccc(O)c(OC)c2)C=CC1=O | 57%
4 | COc1cccc2c1C(=O)C1=C(C2=O)c2c(O)cc(CO)cc2[C@@H](O)[C@@H]1O | < 6%
5 | CCc1ccc(C2=C(O)C(=O)C(c3ccc(CC)cc3)=C(O)C2=O)cc1 | 17%
6 | COc1ccc(-c2cc(=O)cc(-c3ccc(OC)cc3)o2)cc1 | < 6%
7 | O=c1c2ccccc2oc2cc([C@H](O)c3ccccc3)ccc12 | 57%
8 | O=C1c2ccccc2C(=O)c2c(O)c3c(c(O)c21)CCCC3 | 57%
9 | C=CC(C)(C)c1c2c(c(O)c3c(=O)c4ccc(O)c(O)c4oc13)C=CC(C)(C)O2 [MACLURAXANTHONE] | 49%
10 | COc1c(O)cc2oc3cc(O)c(CC=C(C)C)c(O)c3c(=O)c2c1CC=C(C)C [MANGOSTIN] | < 6%

The molecules below were run on A-431 (assay: Antiproliferative activity against human A-431 cells overexpressing EGFR assessed as cell growth inhibition by MTT assay). Settings: not given.
Format: functional, cell-based

Row | Compound | IC50
11 | COc1cccc2c1C(=O)C1=C(C2=O)c2c(O)cc(CO)cc2[C@@H](O)[C@@H]1O | 6.04 µM
12 | CCc1ccc(C2=C(O)C(=O)C(c3ccc(CC)cc3)=C(O)C2=O)cc1 | 17.7 µM
13 | COc1ccc(-c2cc(=O)cc(-c3ccc(OC)cc3)o2)cc1 | 3.81 µM
14 | C=CC(C)(C)c1c2c(c(O)c3c(=O)c4ccc(O)c(O)c4oc13)C=CC(C)(C)O2 [MACLURAXANTHONE] | 2.84 µM
15 | COc1c(O)cc2oc3cc(O)c(CC=C(C)C)c(O)c3c(=O)c2c1CC=C(C)C [MANGOSTIN] | 7.2 µM

Each molecule was assayed on HeLa (assay: Antiproliferative activity against human HeLa cells assessed as cell growth inhibition by MTT assay). Settings: not given.
Format: functional, cell-based

Row | Compound | IC50
16 | COc1cccc2c1C(=O)C1=C(C2=O)c2c(O)cc(CO)cc2[C@@H](O)[C@@H]1O | 1.74 µM
17 | CCc1ccc(C2=C(O)C(=O)C(c3ccc(CC)cc3)=C(O)C2=O)cc1 | 17.3 µM
18 | COc1ccc(-c2cc(=O)cc(-c3ccc(OC)cc3)o2)cc1 | 8.12 µM
19 | C=CC(C)(C)c1c2c(c(O)c3c(=O)c4ccc(O)c(O)c4oc13)C=CC(C)(C)O2 [MACLURAXANTHONE] | 0.95 µM
20 | COc1c(O)cc2oc3cc(O)c(CC=C(C)C)c(O)c3c(=O)c2c1CC=C(C)C [MANGOSTIN] | 12 µM

The molecules below were run against T1, Epidermal growth factor receptor (assay: Inhibition of EGFR tyrosine kinase (unknown origin)). Settings: not given.

Row | Compound | IC50
21 | COc1cccc2c1C(=O)C1=C(C2=O)c2c(O)cc(CO)cc2[C@@H](O)[C@@H]1O | 0.00654 µM
22 | CCc1ccc(C2=C(O)C(=O)C(c3ccc(CC)cc3)=C(O)C2=O)cc1 | 0.0302 µM
23 | COc1ccc(-c2cc(=O)cc(-c3ccc(OC)cc3)o2)cc1 | 0.00015 µM
